Experimental data published in US7037907B1 (The University of Melbourne, priority 1999, dated 2006).
Values joined by “and” are separate entries in the source; they are usually repeats but may differ in a detail not shown here. Equal values may be shown once.

Legend:
[1] = tested on: Human Airway Smooth Muscle cells; assay: Human airway smooth muscle cell number; type: cell-based; conditions: compound 10 μM
Description: (§1) Human airway fibroblasts were obtained from volunteers in a follow-up of the Melbourne Epidemiological Survey of Childhood Asthma (MESCA) (Oswald et al., 1994) initially recruited at age 7 in 1965 and now 42 years old. Volunteers underwent bronchial biopsy which provided tissue samples of epithelium and mucosa of approximately 2 mm^3. These specimens were dissected to remove the epithelium and placed in plastic culture plates. Fibroblasts grew by explant culture over a six week period when maintained according to previously described methods (Zhang et al., 1996). Cells were seeded at subconfluent densities onto six cell plates and after 72 hours were rendered quiescent by serum deprivation. Twenty four hours after serum removal, cells were exposed to thrombin (0.3 U/ml) together with a serum-free medium supplement containing insulin, transferrin and selenium. Cells were harvested by incubation with Trypsin (0.5% w/v) for 10 min. or until a single cell suspension was produced. Cell numbers were then determined using a haemocytometer.
Smooth muscle cells were obtained from airways resected from lung transplant recipients and cultured as previously described in detail (Fernandes et al., 1999). Cell numbers were determined in experiments of the same design as those described for human airway fibroblasts with the additional stimulus of 1% (v/v) fetal calf serum (FCS) being evaluated. In addition, [^3H]-thymidine incorporation was determined between 24 and 28 hours after the addition of thrombin to determine DNA synthesis (Fernandes et al. 1999).

A549 cells = assay: A549 cell DNA synthesis ([3H]-thymidine); type: cell-based; conditions: 5% fetal calf serum, 10 micromolar, [3H]-thymidine 24 hours after addition
Experimental: A549 cells were maintained in DMEM containing 5% fetal calf serum and undergoing asynchronous proliferation. DNA synthesis was determined by the addition of [3H]-thymidine 24 hours after the addition of one of 2-methoxyestradiol, 6-oxo-2-methoxyestradiol and 2-methoxyestradiol-17β-D-glucuronide.

[2] = target: T1, estrogen receptor (rat uterine cytosol) (Rattus norvegicus, UniProt P06211)
T1 sequence (P06211 1-600): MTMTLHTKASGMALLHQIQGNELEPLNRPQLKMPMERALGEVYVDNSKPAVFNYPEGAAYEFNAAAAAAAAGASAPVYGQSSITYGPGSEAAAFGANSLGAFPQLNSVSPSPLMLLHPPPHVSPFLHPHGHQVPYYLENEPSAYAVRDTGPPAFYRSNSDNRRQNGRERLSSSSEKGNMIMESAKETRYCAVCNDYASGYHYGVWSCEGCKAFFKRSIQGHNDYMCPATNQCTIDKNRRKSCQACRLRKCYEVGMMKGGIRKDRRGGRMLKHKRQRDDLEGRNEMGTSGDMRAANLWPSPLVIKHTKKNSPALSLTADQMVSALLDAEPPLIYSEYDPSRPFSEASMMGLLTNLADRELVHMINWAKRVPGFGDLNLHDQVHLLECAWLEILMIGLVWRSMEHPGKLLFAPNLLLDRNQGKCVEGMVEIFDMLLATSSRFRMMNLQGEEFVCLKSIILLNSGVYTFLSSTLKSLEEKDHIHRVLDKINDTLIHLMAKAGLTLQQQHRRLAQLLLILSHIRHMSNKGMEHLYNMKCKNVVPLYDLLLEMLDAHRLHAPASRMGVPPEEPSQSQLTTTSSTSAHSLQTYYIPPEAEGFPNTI

[3] = Description: The octanol:water partition co-efficient is a measure of the relative aqueous and lipid solubility of a compound.
[4] = incubation with rat renal homogenates for 5.5 hours in Tyrodes buffer
Experimental: (§2) At the end of these incubation periods, extraction was carried out by using 100 μl of reaction mixture with 200 μl of acetontrile (ACN) followed by the addition of 5 μl 2M HCL, vortexing and centrifugation at 1500 g (ambient temperature). Samples of enzyme incubates or quality control incubates were then chilled at −20° C. for at least 10 min, prior to removal of 120 μl of the upper (ACN) phase which is added to 120 μl distilled H2O. One hundred μl of this extract was injected into a Hewlett Packard Series 1050 HPLC fitted with a C18 analytical column (Hypersil ODS 3 μM, 4.6×150 mm) guarded by a pre column (Alltech Hypersil ODS 3 μM; 4.6×7.6 mm) and metabolites were detected with a Hewlett Packard 1046A fluorescence detector (I excitation 270 nm, emission, 320 nm). Metabolites were separated in a mobile phase of ACN buffer of 40:60 (buffer comprised 20 mM NaH2 PO4, 0.02% orthophosphoric acid, pH 3.1–3.2) at a flow rate of 0.7 ml/min. for the first 4 min with a linear gradient to a mobile phase of ACN: buffer (76:24) at 4.5 min. which was maintained for the remainder of the separation (10 min).

[5] = target: purified E. Coli-derived β-glucuronidase (Escherichia coli, UniProt P05804); assay: Susceptibility of 2-MEG to metabolism by E. Coli β-glucuronidase (HPLC); type: in vitro ADME; conditions: incubation with E. Coli β-glucuronidase for 16 hours in Tyrodes buffer
Sequence of purified E. Coli-derived β-glucuronidase (P05804 whole entry): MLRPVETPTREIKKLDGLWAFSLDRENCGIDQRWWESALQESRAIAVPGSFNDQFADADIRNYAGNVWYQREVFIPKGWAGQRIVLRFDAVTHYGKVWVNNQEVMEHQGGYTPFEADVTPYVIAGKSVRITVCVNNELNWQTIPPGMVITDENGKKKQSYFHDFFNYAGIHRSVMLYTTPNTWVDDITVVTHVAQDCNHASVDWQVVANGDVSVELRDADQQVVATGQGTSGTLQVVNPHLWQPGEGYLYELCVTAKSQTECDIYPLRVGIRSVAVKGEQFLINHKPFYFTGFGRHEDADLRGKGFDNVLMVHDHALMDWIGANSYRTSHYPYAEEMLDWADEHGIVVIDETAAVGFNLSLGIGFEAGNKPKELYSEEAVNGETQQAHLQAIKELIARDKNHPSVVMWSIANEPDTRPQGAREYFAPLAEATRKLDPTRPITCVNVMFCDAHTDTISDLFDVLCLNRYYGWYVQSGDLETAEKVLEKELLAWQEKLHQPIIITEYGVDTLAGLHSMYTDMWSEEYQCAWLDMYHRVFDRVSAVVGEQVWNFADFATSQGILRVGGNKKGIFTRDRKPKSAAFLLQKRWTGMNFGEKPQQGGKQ
Experimental: as §2

[6] = tested on: Airway smooth muscle cells; assay: Shape change of cultured airway smooth muscle cells; type: cell-based, human; conditions: 72 hours in culture, 5% FCS, 10 micro M
Human airway fibroblasts = assay: Human airway fibroblast cell number (haemocytometer); type: cell-based; conditions: stimulus Thrombin (0.3 U/ml), compound 10 μM
Description: as §1

[7] = target: T1, estrogen receptor (rat uterine cytosol); assay: biochemical

In the case of COc1cc2c(cc1O)CC[C@@H]1[C@@H]2CC[C@]2(C)[C@@H](O[C@@H]3O[C@H](C(=O)O)[C@@H](O)[C@H](O)[C@H]3O)CC[C@@H]12 [2-MEG, 2-Methoxyestradiol-17-b-D-glucopyranosiduronic acid], the “Cell Number (% control)” value ([1]; stimulus FCS (1%, v/v)) is reported as 47 ± 16, n = 5 % control, the “Cell Number (% control)” value ([1]; stimulus Thrombin (0.3 U/ml)) is reported as 29 ± 8, n = 12 % control and the “effect on DNA synthesis” value (A549 cells) is reported as “ineffective”. For the same compound, the “affinity for estrogen receptors relative to 2-MEO (from logIC50 values)” value ([2]; rat uterine cytosol, [3H]estradiol displacement) was 1/50, the octanol/water partition coefficient ([3]; 1-octanol/water, fluorescence spectroscopy) was 0.372 and the “aqueous solubility relative to 2-MEO” value ([3]; inferred from partition coefficients) was “approximately 25 times”. For the same compound, the logP ([3]; octanol/water) was −0.429, the “conversion of 2-MEG to 2-MEO” value [4] was roughly 6% and the “conversion of 2-MEG to 2-MEO” value [5] was roughly 20%. The cell shape change [6] was “not detected”.
For COc1cc2c(cc1O)CCC1C2CCC2(C)C(O)CCC12 (stereo not drawn) [2-MEO, 1,3,5(10)-estratriene-3,17βdiol 2 methyl ether, reference compound], the “Cell Number (% control)” value (Human airway fibroblasts) was 12±8 % control and 12 ± 8, n = 7 % control, the “Cell Number (% control)” value ([1]; stimulus FCS (1%, v/v)) was 25 ± 9, n = 5 % control and the “Cell Number (% control)” value ([1]; stimulus Thrombin (0.3 U/ml)) was 14 ± 12, n = 10 % control. For the same compound, the “effect on DNA synthesis” value (A549 cells) was “reduce DNA synthesis significantly”, the “displacement of [3H]estradiol at highest concentration” value ([2]; 10 μM displacer) was “incomplete response” and the IC50 [7] was roughly 100 nM. For the same compound, the cell shape change [6] was “readily discernible shape change”.
In the case of COc1cc2c(cc1O)C(=O)C[C@@H]1[C@@H]2CC[C@]2(C)[C@@H](O)CC[C@@H]12 [6-oxo-2-methoxyestradiol, 6-Oxo-2-methoxyestradiol], the “effect on DNA synthesis” value (A549 cells) is reported as “reduce DNA synthesis significantly”.
